From US12091402B2 (Avilar Therapeutics, Inc., priority 2021, dated 2024) come the findings set out here.

This assay addresses T1, ASGPR (Homo sapiens, UniProt P07306).
T1 sequence (P07306 1-291): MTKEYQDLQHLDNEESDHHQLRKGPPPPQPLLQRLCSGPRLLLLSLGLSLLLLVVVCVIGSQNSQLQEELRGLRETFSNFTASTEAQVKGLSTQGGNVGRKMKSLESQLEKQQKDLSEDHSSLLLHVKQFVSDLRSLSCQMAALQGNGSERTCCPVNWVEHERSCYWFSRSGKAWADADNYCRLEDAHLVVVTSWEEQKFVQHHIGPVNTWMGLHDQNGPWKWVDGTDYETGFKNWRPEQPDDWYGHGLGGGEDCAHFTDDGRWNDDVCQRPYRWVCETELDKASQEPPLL
As to the kind of experiment: Affinity to ASGPR by surface plasmon resonance (SPR). Background: Surface plasmon resonance follows binding to a sensor surface in real time, without labels.

With `[N-]=[N+]=NC[C@H]1OC[C@H](Nc2nccc(C(F)(F)F)n2)[C@@H](O)[C@H]1O` [A59, (2R,3R,4R,5S)-2-(azidomethyl)-5-((4-(trifluoromethyl)pyrimidin-2-yl)amino)tetrahydro-2H-pyran-3,4-diol], the Kd (commonly the equilibrium constant for the complex coming apart) was < 1 µM.
In the case of `O=C(O)COCCOCCOCC(=O)NC(COCCC(=O)NCCOCCOCCOCCOC[C@H]1OC[C@H](Nc2nccc(C(F)(F)F)n2)[C@@H](O)[C@H]1O)COCCC(=O)NCCOCCOCCOCCOC[C@H]1OC[C@H](Nc2nccc(C(F)(F)F)n2)[C@@H](O)[C@H]1O` [A23, 1-((2R,3R,4R,5S)-3,4-dihydroxy-5-((4-(trifluoromethyl)pyrimidin-2-yl)amino)tetrahydro-2H-pyran-2-yl)-20-(1-((2R,3R,4R,5S)-3,4-dihydroxy-5-((4-(trifluoromethyl)pyrimidin-2-yl)amino)tetrahydro-2H-pyran-2-yl)-15-oxo-2,5,8,11,18-pentaoxa-14-azanonadecan-19-yl)-15,22-dioxo-2,5,8,11,18,24,27,30-octaoxa-14,21-diazadotriacontan-32-oic acid], the dissociation constant Kd was < 0.1 µM.
The same measure for `COc1cc(C(F)(F)F)nc(N[C@H]2[C@H]3OC[C@](CO)(O3)[C@H](O)[C@@H]2O)n1` [A46, (1S,2R,3R,4R,5S)-1-(hydroxymethyl)-4-((4-methoxy-6-(trifluoromethyl)pyrimidin-2-yl)amino)-6,8-dioxabicyclo[3.2.1]octane-2,3-diol]: < 1 µM; for `C[C@@H]1O[C@H](CO)[C@H](O)[C@H](O)[C@H]1Nc1nccc(C(F)(F)F)n1` [A55, (2R,3R,4R,5R,6S)-2-(hydroxymethyl)-6-methyl-5-((4-(trifluoromethyl)pyrimidin-2-yl)amino)tetrahydro-2H-pyran-3,4-diol]: 10 to 100 µM; for `CC(=O)NC[C@H]1OC[C@H](Nc2cncc(C(F)(F)F)n2)[C@@H](O)[C@H]1O` [A90, N-(((2R,3R,4R,5S)-3,4-dihydroxy-5-((6-(trifluoromethyl)pyrazin-2-yl)amino)tetrahydro-2H-pyran-2-yl)methyl)acetamide]: < 1 µM.
As for `O=C(O)CNC(COCCC(=O)NCCOCCOCCOCCOC[C@H]1OC[C@H](Nc2cncc(C(F)(F)F)n2)[C@@H](O)[C@H]1O)COCCC(=O)NCCOCCOCCOCCOC[C@H]1OC[C@H](Nc2cncc(C(F)(F)F)n2)[C@@H](O)[C@H]1O` [A31, (1,39-bis((2R,3R,4R,5S)-3,4-dihydroxy-5-((6-(trifluoromethyl)pyrazin-2-yl)amino)tetrahydro-2H-pyran-2-yl)-15,25-dioxo-2,5,8,11,18,22,29,32,35,38-decaoxa-14,26-diazanonatriacontan-20-yl)glycine], the dissociation constant (Kd) is < 0.1 µM.
The figure for `O[C@@H]1[C@H](O)[C@@H](Nc2nccc(C(F)(F)F)n2)CO[C@@H]1Cn1ccnn1` [A67, (2R,3R,4R,5S)-2-((1H-1,2,3-triazol-1-yl)methyl)-5-((4-(trifluoromethyl)pyrimidin-2-yl)amino)tetrahydro-2H-pyran-3,4-diol] is < 1 µM; for `OCc1cn(C[C@H]2OC[C@H](Nc3nccc(C(F)(F)F)n3)[C@@H](O)[C@H]2O)nn1` [A68, (2R,3R,4R,5S)-2-((4-(hydroxymethyl)-1H-1,2,3-triazol-1-yl)methyl)-5-((4-(trifluoromethyl)pyrimidin-2-yl)amino)tetrahydro-2H-pyran-3,4-diol] it is < 1 µM.
The same measure for `OC[C@@]12CO[C@@H](O1)[C@H](Nc1nc3ccccc3o1)[C@@H](O)[C@H]2O` [A45, (1S,2R,3R,4R,5S)-4-(benzo[d]oxazol-2-ylamino)-1-(hydroxymethyl)-6,8-dioxabicyclo[3.2.1]octane-2,3-diol]: 1 to 10 µM.
The figure for `N#Cc1ccnnc1N[C@H]1[C@H]2OC[C@](CO)(O2)[C@H](O)[C@@H]1O` [A39, 3-[[(1S,2R,3R,4R,5S)-2,3-dihydroxy-1-(hydroxymethyl)-6,8-dioxabicyclo[3.2.1]octan-4-yl]amino]pyridazine-4-carbonitrile] is 1 to 10 µM.
In turn, `C=CCO[C@H]1O[C@H](Cn2cc(CO)nn2)[C@H](O)[C@H](O)[C@H]1NC(=O)C(F)(F)F` [A63, N-((2S,3R,4R,5R,6R)-2-(allyloxy)-4,5-dihydroxy-6-((4-(hydroxymethyl)-1H-1,2,3-triazol-1-yl)methyl)tetrahydro-2H-pyran-3-yl)-2,2,2-trifluoroacetamide] displayed a dissociation constant Kd of 1 to 10 µM.
Take `O=C(O)CC(=O)NC[C@H]1OC[C@H](Nc2cncc(C(F)(F)F)n2)[C@@H](O)[C@H]1O` [A32, 3-((((2R,3R,4R,5S)-3,4-dihydroxy-5-((6-(trifluoromethyl)pyrazin-2-yl)amino)tetrahydro-2H-pyran-2-yl)methyl)amino)-3-oxopropanoic acid]: the Kd was < 1 µM.
In turn, `C=CCO[C@H]1O[C@H](Cn2cc(-c3cccc(OC)c3)nn2)[C@H](O)[C@H](O)[C@H]1NC(=O)C(F)(F)F` [A57, N-((2S,3R,4R,5R,6R)-2-(allyloxy)-4,5-dihydroxy-6-((4-(3-methoxyphenyl)-1H-1,2,3-triazol-1-yl)methyl)tetrahydro-2H-pyran-3-yl)-2,2,2-trifluoroacetamide] had a dissociation constant Kd of 1 to 10 µM.
As for `C=CCO[C@H]1O[C@H](CN=[N+]=[N-])[C@H](O)[C@H](O)[C@H]1Nc1nccc(C(F)(F)F)n1` [A72, (2R,3R,4R,5R,6S)-6-(allyloxy)-2-(azidomethyl)-5-((4-(trifluoromethyl)pyrimidin-2-yl)amino)tetrahydro-2H-pyran-3,4-diol], the dissociation constant (Kd) is < 1 µM.
`C=CCO[C@H]1O[C@H](Cn2ccnn2)[C@H](O)[C@H](O)[C@H]1NC(=O)C(F)(F)F` [A70, N-((2S,3R,4R,5R,6R)-6-((1H-1,2,3-triazol-1-yl)methyl)-2-(allyloxy)-4,5-dihydroxytetrahydro-2H-pyran-3-yl)-2,2,2-trifluoroacetamide]: the Kd was < 1 µM.
Take `O=C(O)COc1ccc(COC[C@H]2OC[C@H](Nc3cncc(C(F)(F)F)n3)[C@@H](O)[C@H]2O)cc1` [A19, 2-(4-((((2R,3R,4R,5S)-3,4-dihydroxy-5-((6-(trifluoromethyl)pyrazin-2-yl)amino)tetrahydro-2H-pyran-2-yl)methoxy)methyl)phenoxy)acetic acid]: the dissociation constant Kd is < 0.1 µM.
The same measure for `NC(COCCC(=O)NCCOCCOCCOCCOC[C@H]1OC[C@H](Nc2cncc(C(F)(F)F)n2)[C@@H](O)[C@H]1O)COCCC(=O)NCCOCCOCCOCCOC[C@H]1OC[C@H](Nc2cncc(C(F)(F)F)n2)[C@@H](O)[C@H]1O` [A131]: < 0.1 µM; for `OC[C@H]1OC[C@H](Nc2nc(C(F)(F)F)ccc2F)[C@@H](O)[C@H]1O` [A77, (2R,3R,4R,5S)-5-((3-fluoro-6-(trifluoromethyl)pyridin-2-yl)amino)-2-(hydroxymethyl)tetrahydro-2H-pyran-3,4-diol]: < 1 µM.
The figure for `O[C@@H]1[C@H](O)[C@@H](Nc2cncc(C(F)(F)F)n2)CO[C@@H]1CNc1ccccc1` [A95, (2R,3R,4R,5S)-2-((phenylamino)methyl)-5-((6-(trifluoromethyl)pyrazin-2-yl)amino)tetrahydro-2H-pyran-3,4-diol] is 1 to 10 µM.
The compound `N#Cc1cc(N[C@H]2[C@H]3OC[C@](CO)(O3)[C@H](O)[C@@H]2O)cnc1Cl` [A41, 2-chloro-5-[[(1S,2R,3R,4R,5S)-2,3-dihydroxy-1-(hydroxymethyl)-6,8-dioxabicyclo[3.2.1]octan-4-yl]amino]pyridine-3-carbonitrile] showed a Kd of 1 to 10 µM.
